According to patent US7445892B2, “Method of testing anticancer agent-sensitivity of tumor cells” (Eisai Co., Ltd., priority 2000, dated 2008):

Columns and labels:
Assay type in all cases: cell-based, human
MOLT-4 = test: Gene expression analysis using GeneChip in three kinds of cancers; details: MOLT-4, 8 μM for 12 hours
Experimental: (§1) Gene expression changes in three kinds of cancers of HCT116-C9 (human colon cancer cell strain), MDA-MB-435 (human breast cancer cell strain) and MOLT-4 (human T lymphoblastic leukemia cell strain) caused by E7070 (treated with 8 μM for 12 hours) were examined by using GeneChip in the same manner as in Example 2. A list of the genes of which expression was enhanced 1.8 times or more in common in the three kinds of cancers is shown in Table 3. Further, a list of the genes of which expression was inhibited 1.8 times or more in common in the three kinds of cancers is shown in Table 4. Since the genes of which expression varies (enhanced or reduced) in common in these strains of the three kinds of cancers established from cancer patients with totally different genetic backgrounds are very likely to be more closely associated with the E7070 antitumor action mechanism common to the tumor cells, it is considered that they can be used as valid markers when susceptibility of a tumor cell to E7070 and its related compounds is tested.

MDA-MB-435 = test: as above; details: MDA-MB-435, 8 μM for 12 hours
Experimental: as §1

HCT116-C9-C1 = test: Gene expression analysis using GeneChip in E7070-resistant strain C9-C1; details: resistant strain C9-C1, 8 μM, 12 hours
Experimental: E7070, or ER-35748 or ER-68487 represented by the structural formula shown below was added to the media of an E7070-susceptible strain HCT116-C9 and an E7070-resistant strain HCT116-C9-C1 at a concentration of 8 μM and the cells were cultured. Then, cells were recovered after 0, 3, 6 and 12 hours. Further, the cells were also cultured for 12 hours without adding the drug and recovered. Total RNA was extracted from these cells and subjected to the subsequent analyses. […] The stained GeneChip was scanned by using HP Argon Ion Laser Confocal Scanner (Hewlett Packard) to measure its fluorescence intensity. The fluorescence was measured at 570 nm by using an excitation light at 488 nm. The quantitative data analyses were all conducted by using GeneChip Software (Affymetrix). To quantify RNA, an average of “differences [(Perfect match hybridization signal)−(Mismatch signal)]” was obtained for each probe family. […] Two kinds of E7070-resistant strains (C9-C1 and another resistant strain (C9-C4) obtained in the same method as C9-C1) were treated with 8 μM of E7070 for 12 hours in the same manner as described above, and variations of the gene expression were analyzed by using GeneChip for the genes listed in Tables 1 and 2.

C9-C4 = test: Gene expression analysis using GeneChip in E7070-resistant strain C9-C4; details: resistant strain C9-C4, 8 μM, 12 hours
Experimental: The fragmented cRNA was hybridized with GeneChip Hu6800 (Affymetrix) in 100 mM MES, 1 M sodium salt, 20 mM EDTA and 0.01% Tween 20 at 45° C. for 16 hours. After the hybridization, the GeneChip was washed and stained according to the protocol EukGE-WS2 attached to Affymetrix Fluidics Station. For the staining, streptavidin-phycoerythrin and biotinylated goat anti-streptavidin antibody were used. The stained GeneChip was scanned by using HP Argon Ion Laser Confocal Scanner (Hewlett Packard) to measure its fluorescence intensity. The fluorescence was measured at 570 nm by using an excitation light at 488 nm. The quantitative data analyses were all conducted by using GeneChip Software (Affymetrix). To quantify RNA, an average of “differences [(Perfect match hybridization signal)−(Mismatch signal)]” was obtained for each probe family. […] Two kinds of E7070-resistant strains (C9-C1 and another resistant strain (C9-C4) obtained in the same method as C9-C1) were treated with 8 μM of E7070 for 12 hours in the same manner as described above, and variations of the gene expression were analyzed by using GeneChip for the genes listed in Tables 1 and 2.

LX-1-E2 = test: Cell growth inhibition by the MTT method; details: resistant strain LX-1-E2, drug concentration 8 μM, 72 hours culture
Experimental: (§2) The used cell strains HCT116-C9, HCT116-C9-C1, LX-1 and LX-1-E2 were cultured for 72 hours with addition of E7070. The actual operation was performed by using CellTiter 96 Non-Radioactive Cell Proliferation Assay (Promega, Madison, Wis.) according to the attached operation manual.

HCT116-C9 = test: Cell growth inhibition by the MTT method; details: HCT116-C9, 72 hours culture, FIG. 1
Experimental: as §2

NS(=O)(=O)c1ccc(S(=O)(=O)Nc2cccc3c(Cl)c[nH]c23)cc1 [E7070, N-(3-chloro-7-indolyl)-1,4-benzenedisulfonamide]
enhancement of expression of the genes listed in Table 3 (MOLT-4): ≥ 1.8 times
inhibition of expression of the genes listed in Table 4 (MOLT-4): ≥ 1.8 times
enhancement of expression of the genes listed in Table 3 (MDA-MB-435): ≥ 1.8 times
inhibition of expression of the genes listed in Table 4 (MDA-MB-435): ≥ 1.8 times
variations of the gene expression for the genes listed in Tables 1 and 2 (HCT116-C9-C1): no gene that increased or decreased 1.8 times or more was observed
variations of the gene expression for the genes listed in Tables 1 and 2 (C9-C4): no gene that increased or decreased 1.8 times or more was observed
growth inhibitory effect (LX-1-E2): some growth inhibitory effect
susceptibility (cell growth inhibition) (HCT116-C9): highest susceptibility
